Results taken from patent publication US10947271B2, “Antibacterial agents” (THE UNIVERSITY OF QUEENSLAND, priority 2014, dated 2021).

What was measured:
[1] = tested on: Staphylococcus aureus MRSA ATCC 43300; test: MIC assay, S. aureus MRSA ATCC 43300; assay type: cell-based; settings: 24 h incubation, visual reading
In short: (§1)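 Mid-log cultures in MHB were added at 5×10e5 CFU/mL to compounds diluted twofold from 8 to 0.003 μg/ml. Visual inspection after 24 h incubation at 37° C. gave the MIC, the lowest concentration without visible growth.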

[2] = Stability of compounds in human plasma
Protocol: Briefly test compounds (20 μM) were prepared from a 1 mM stock solution. The human plasma sample (200 μl) was diluted with 160 μl phosphate-buffer saline (PBS, pH 7.4) to a concentration of 50% v/v before use. Solutions were then vortexed and placed on a 37° C. shaker and shaken gently for 10 minutes. 40 μl of the test compounds were then added to the plasma sample and vortexed. For the reaction time t=0 hour, 50 μl of sample was immediately transferred into an eppendorf tube and quenched with 150 μl cold acetonitrile. The remaining plasma solution was incubated and shaken at 37° C. Other samples were collected at time points of 0, 1, 3, 6 and 24 hours whereby 50 μl aliquots were removed and quenched with 150 μl cold acetonitrile. All samples were placed in a 4° C. fridge for 10 minutes then centrifuged at 3000 rpm for 15 minutes. The supernatant (100 μl) was transferred to a glass vial insert for LCMS analysis. The percentage of test compounds remaining at the individual time points relative to sample at time point 0 hour were reported.
Plasma: Human Plasma (Pooled Normal Human Plasma Heparin Anticoagulant 50 mL (IPLA-2 N-04 lot IR09-1001, originally from Innovative Research and imported by BioCore).
All compounds in 100% water (40 μL in 400 μL assay volume equivalent […])
Compounds: 40 μL of the vancomycin derivative solution was added to 160 μL of PBS (pH 7.4) respectively in an Eppendorf tube. 600 μL of cold acetonitrile was added, the tube vortexed and transferred to a glass vial for LC-MS analysis.
Eucatropine: 200 μL of plasma and 190 μL of buffer were vortexed, shaken at 37° C. for 10 minutes. 10 μL of eucatropine solution was then added and the tube vortexed. A 50 μL aliquot was immediately transferred to an Eppendorf tube, 150 μL of cold acetonitrile added and the tube transferred to a 4° C. fridge for 10 minutes. The remaining plasma solution was then transferred to the incubator and shaken at 37° C. The tube was retrieved from the fridge, centrifuged at 3000 rpm for 15 min and 100 μL of supernatant transferred to a glass vial insert for LC-MS analysis. 50 μL aliquots were processed as above at 1, […], 3, 6 and 24 hours and 5 μL was injected into triple quad MS system for analysis. Vancomycin derivatives: 200 μL of plasma and 160 μL of buffer were vortexed and shaken at 37° C. for 10 minutes. 40 μL of compound was then added and the sample was processed as above.

[3] = tested on: Streptococcus pneumoniae MDR ATCC 700677; test: MIC assay, S. pneumoniae MDR ATCC 700677; assay type: cell-based; settings: 24 h incubation, visual reading
In short: as §1

[4] = tested on: Enterococcus faecium MDR Van A ATCC 51559; test: MIC assay, E. faecium MDR Van A ATCC 51559; assay type: cell-based; settings: 24 h incubation, visual reading
In short: as §1

[5] = 0 h (reference time point), 50% human plasma/PBS pH 7.4, 37° C.
[6] = 1 h, 50% human plasma/PBS pH 7.4, 37° C.
[7] = 6 h, 50% human plasma/PBS pH 7.4, 37° C.
[8] = 24 h, 50% human plasma/PBS pH 7.4, 37° C.
[9] = 3 h, 50% human plasma/PBS pH 7.4, 37° C.

CNC(CC(C)C)C(=O)NC1C(=O)NC(CC(N)=O)C(=O)NC2C(=O)NC3C(=O)NC(C(=O)NC(C(=O)NCCCCC(NC(=O)C(CCCCN)NC(=O)C(CCCCN)NC(=O)C(CCCCNC(=O)c4ccc(Oc5ccccc5)cc4)NC(=O)c4ccc(Oc5ccccc5)cc4)C(=O)O)c4cc(O)cc(O)c4-c4cc3ccc4O)C(O)c3ccc(c(Cl)c3)Oc3cc2cc(c3OC2OC(CO)C(O)C(O)C2OC2CC(C)(N)C(O)C(C)O2)Oc2ccc(cc2Cl)C1O (stereo not shown) [MCC_000217, (4-PhO-PhCO)-K(4-PhO-PhCO)-KK-K(Vanc)-OH]
Minimum Inhibitory Concentration (MIC) Staph. aureus ATCC43300 [1]: xxxxx (xxxxx = <0.01) | % compound remaining after incubation in 50% human plasma [2, 5]: 100% | % compound remaining after incubation in 50% human plasma [2, 6]: 107% | % compound remaining after incubation in 50% human plasma [2, 7]: 103% | % compound remaining after incubation in 50% human plasma [2, 8]: 99% | Minimum Inhibitory Concentration (MIC) S. pneumoniae ATCC 700677 [3]: xxxxx (xxxxx = <0.01) | Minimum Inhibitory Concentration (MIC) E. faecium ATCC51559 [4]: xx (xx = 1-4)

CCCCCCCCCCCCCC(=O)N[C@H](CCCCN)C(=O)N[C@H](CCCCN)C(=O)NCC(=O)NCCNC(=O)[C@H]1NC(=O)[C@H]2NC(=O)[C@H](NC(=O)[C@@H]3NC(=O)[C@H](CC(N)=O)NC(=O)[C@H](NC(=O)[C@@H](CC(C)C)NC)[C@H](O)c4ccc(c(Cl)c4)Oc4cc3cc(c4O[C@@H]3O[C@H](CO)[C@@H](O)[C@H](O)[C@H]3O[C@H]3C[C@](C)(N)[C@H](O)[C@H](C)O3)Oc3ccc(cc3Cl)[C@H]2O)c2ccc(O)c(c2)-c2c(O)cc(O)cc21 [MCC_000227, nC13CO-kkG-NHC2NH-Vanc]
Minimum Inhibitory Concentration (MIC) Staph. aureus ATCC43300 [1]: xxxxx (xxxxx = <0.01) | % compound remaining after incubation in 50% human plasma [2, 5]: 100% | % compound remaining after incubation in 50% human plasma [2, 6]: 102% | % compound remaining after incubation in 50% human plasma [2, 9]: 102% | % compound remaining after incubation in 50% human plasma [2, 7]: 93% | % compound remaining after incubation in 50% human plasma [2, 8]: 94% | Minimum Inhibitory Concentration (MIC) S. pneumoniae ATCC 700677 [3]: xxxxx (xxxxx = <0.01) | Minimum Inhibitory Concentration (MIC) E. faecium ATCC51559 [4]: xx (xx = 1-4)

CCCCCCCCCCCCCC(=O)N[C@@H](CCCCN)C(=O)N[C@@H](CCCCN)C(=O)N[C@@H](CCCCN)C(=O)N[C@@H](CCCCNC(=O)[C@H]1NC(=O)[C@H]2NC(=O)[C@H](NC(=O)[C@@H]3NC(=O)[C@H](CC(N)=O)NC(=O)[C@H](NC(=O)[C@@H](CC(C)C)NC)[C@H](O)c4ccc(c(Cl)c4)Oc4cc3cc(c4O[C@@H]3O[C@H](CO)[C@@H](O)[C@H](O)[C@H]3O[C@H]3C[C@](C)(N)[C@H](O)[C@H](C)O3)Oc3ccc(cc3Cl)[C@H]2O)c2ccc(O)c(c2)-c2c(O)cc(O)cc21)C(=O)O [MCC_000223, nC13CO-KKK-K(Vanc)-OH]
Minimum Inhibitory Concentration (MIC) Staph. aureus ATCC43300 [1]: xxxxx (xxxxx = <0.01) | % compound remaining after incubation in 50% human plasma [2, 5]: 100% | % compound remaining after incubation in 50% human plasma [2, 6]: 174% | % compound remaining after incubation in 50% human plasma [2, 9]: 164% | % compound remaining after incubation in 50% human plasma [2, 7]: 170% | % compound remaining after incubation in 50% human plasma [2, 8]: 139% | Minimum Inhibitory Concentration (MIC) S. pneumoniae ATCC 700677 [3]: xxxxx (xxxxx = <0.01) | Minimum Inhibitory Concentration (MIC) E. faecium ATCC51559 [4]: xxx (xxx = 0.1-<1)

nC13CO-KKK-C(SS-nEt-NH-Vanc)-OH [MCC_000535, reference compound]
% compound remaining after incubation in 50% human plasma ([2]; human, plasma, 0 h, pH 7.4): 100% | % compound remaining after incubation in 50% human plasma ([2]; human, plasma, 1 h, pH 7.4): 77% | % compound remaining after incubation in 50% human plasma ([2]; human, plasma, 3 h, pH 7.4): 64% | % compound remaining after incubation in 50% human plasma ([2]; human, plasma, 6 h, pH 7.4): 51% | % compound remaining after incubation in 50% human plasma ([2]; human, plasma, 24 h, pH 7.4): 3%

CCCCCCCCCCC(=O)N[C@@H](CCCCN)C(=O)N[C@@H](CCCCN)C(=O)N[C@@H](CCCCN)C(=O)N[C@@H](CCCCNC(=O)[C@H]1NC(=O)[C@H]2NC(=O)[C@H](NC(=O)[C@@H]3NC(=O)[C@H](CC(N)=O)NC(=O)[C@H](NC(=O)[C@@H](CC(C)C)NC)[C@H](O)c4ccc(c(Cl)c4)Oc4cc3cc(c4O[C@@H]3O[C@H](CO)[C@@H](O)[C@H](O)[C@H]3O[C@H]3C[C@](C)(N)[C@H](O)[C@H](C)O3)Oc3ccc(cc3Cl)[C@H]2O)c2ccc(O)c(c2)-c2c(O)cc(O)cc21)C(=O)O [MCC_000229, nC10CO-KKK-K(Vanc)-OH]
Minimum Inhibitory Concentration (MIC) Staph. aureus ATCC43300 [1]: xxxx (xxxx = 0.01-<0.1) | % compound remaining after incubation in 50% human plasma [2, 5]: 100% | % compound remaining after incubation in 50% human plasma [2, 6]: 87% | % compound remaining after incubation in 50% human plasma [2, 9]: 87% | % compound remaining after incubation in 50% human plasma [2, 7]: 83% | % compound remaining after incubation in 50% human plasma [2, 8]: 93% | Minimum Inhibitory Concentration (MIC) S. pneumoniae ATCC 700677 [3]: xxx (xxx = 0.1-<1) | Minimum Inhibitory Concentration (MIC) E. faecium ATCC51559 [4]: xxxx (xxxx = 0.01-<0.1)

CCCCCCCCCCC(=O)NCC(=O)N[C@@H](CO)C(=O)N[C@@H](CCCCN)C(=O)N[C@@H](CCCCN)C(=O)N[C@@H](CCCCN)C(=O)N[C@@H](CCCCNC(=O)[C@H]1NC(=O)[C@H]2NC(=O)[C@H](NC(=O)[C@@H]3NC(=O)[C@H](CC(N)=O)NC(=O)[C@H](NC(=O)[C@@H](CC(C)C)NC)[C@H](O)c4ccc(c(Cl)c4)Oc4cc3cc(c4O[C@@H]3O[C@H](CO)[C@@H](O)[C@H](O)[C@H]3O[C@H]3C[C@](C)(N)[C@H](O)[C@H](C)O3)Oc3ccc(cc3Cl)[C@H]2O)c2ccc(O)c(c2)-c2c(O)cc(O)cc21)C(=O)O [MCC_000082, nC10CO-GSKKK-K(Vanc)-OH]
% compound remaining after incubation in 50% human plasma [2, 5]: 100% | % compound remaining after incubation in 50% human plasma [2, 6]: 136% | % compound remaining after incubation in 50% human plasma [2, 9]: 252% | % compound remaining after incubation in 50% human plasma [2, 7]: 241% | % compound remaining after incubation in 50% human plasma [2, 8]: 73%

CCCCCCCCCCCCCC(=O)N[C@@H](CCCCN)C(=O)N[C@@H](CCCCN)C(=O)NCC(=O)NCCNC(=O)[C@H]1NC(=O)[C@H]2NC(=O)[C@H](NC(=O)[C@@H]3NC(=O)[C@H](CC(N)=O)NC(=O)[C@H](NC(=O)[C@@H](CC(C)C)NC)[C@H](O)c4ccc(c(Cl)c4)Oc4cc3cc(c4O[C@@H]3O[C@H](CO)[C@@H](O)[C@H](O)[C@H]3O[C@H]3C[C@](C)(N)[C@H](O)[C@H](C)O3)Oc3ccc(cc3Cl)[C@H]2O)c2ccc(O)c(c2)-c2c(O)cc(O)cc21 [MCC_000226, nC13CO-KKG-NHC2NH-Vanc]
Minimum Inhibitory Concentration (MIC) Staph. aureus ATCC43300 [1]: xxxxx (xxxxx = <0.01) | % compound remaining after incubation in 50% human plasma [2, 5]: 100% | % compound remaining after incubation in 50% human plasma [2, 6]: 98% | % compound remaining after incubation in 50% human plasma [2, 9]: 137% | % compound remaining after incubation in 50% human plasma [2, 7]: 85% | % compound remaining after incubation in 50% human plasma [2, 8]: 87% | Minimum Inhibitory Concentration (MIC) S. pneumoniae ATCC 700677 [3]: xxxxx (xxxxx = <0.01) | Minimum Inhibitory Concentration (MIC) E. faecium ATCC51559 [4]: xxx (xxx = 0.1-<1)
